target: Plasma Kallikrein (Homo sapiens (Human), UniProt P03952); experiment: Determination of related protease inhibition: Plasma Kallikrein (fluorogenic substrate at Km); assay type: biochemical; conditions: 25° C., read-out: IC50 (human PKal)
Protocol: Determination of Related Protease Inhibition
In vitro inhibition of related proteases was determined using an ([…] assay based on standard literature methods (see e.g. Shori et al., Biochem. Pharmacol., 1992, 43, 1209; Bouckaert et al., European Journal of Medicinal Chemistry 110 (2016) 181). Human serine protease enzymes Plasma Kallikrein, KLK1, FXa, Plasmin, Thrombin and Trypsin were assayed for enzymatic activity using an appropriate fluorogenic substrate at Km concentration, FXIa at fixed substrate concentration of 100 μM, and various concentrations of the test compound. Protease activity was measured by monitoring the accumulation of liberated fluorescence from the substrate over […]. The linear rate of fluorescence increase per minute was expressed as percentage (%) activity. IC50 values were calculated as the concentration of inhibitor giving 50% inhibition of the uninhibited enzyme activity (100%).

Sequence of Plasma Kallikrein (P03952 391-638): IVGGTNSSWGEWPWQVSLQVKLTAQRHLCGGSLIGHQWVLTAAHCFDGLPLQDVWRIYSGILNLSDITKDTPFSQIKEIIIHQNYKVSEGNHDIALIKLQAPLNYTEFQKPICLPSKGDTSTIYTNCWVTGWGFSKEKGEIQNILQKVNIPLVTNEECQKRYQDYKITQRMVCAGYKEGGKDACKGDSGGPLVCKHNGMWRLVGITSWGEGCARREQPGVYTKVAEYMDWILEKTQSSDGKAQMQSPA
Sequence of Plasma Kallikrein (P03952 20-390 partner): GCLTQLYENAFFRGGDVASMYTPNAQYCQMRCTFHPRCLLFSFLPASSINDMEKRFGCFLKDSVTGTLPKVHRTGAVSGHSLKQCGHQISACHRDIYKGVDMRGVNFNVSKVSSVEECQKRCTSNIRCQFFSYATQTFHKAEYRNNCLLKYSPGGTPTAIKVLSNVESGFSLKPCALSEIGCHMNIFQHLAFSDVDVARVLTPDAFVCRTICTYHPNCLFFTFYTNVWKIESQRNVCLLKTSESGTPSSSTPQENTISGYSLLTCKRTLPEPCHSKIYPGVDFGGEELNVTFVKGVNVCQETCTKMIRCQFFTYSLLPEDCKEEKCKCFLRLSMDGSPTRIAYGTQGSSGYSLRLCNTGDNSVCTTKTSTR

| SMILES | IC50 [µM] |
| --- | --- |
| CN1CCC(CNc2ccc(CNc3ccn4ccnc4c3)cn2)CC1 [Example 1222, N-((6-(((1-methylpiperidin-4-yl)methyl)amino)pyridin-3-yl)methyl)imidazo[1,2-a]pyridin-7-amine] | > 40 |
| CN1CCC(CNc2ccc(CNc3cnc4ccccc4c3)cn2)CC1 [Example 1183, N-((6-(((1-methylpiperidin-4-yl)methyl)amino)pyridin-3-yl)methyl)quinolin-3-amine] | > 100 |
| CN1CCC(CNc2ccc(CNc3cnn(-c4cccc(Cl)c4)c3)cn2)CC1 [Example 1116, 5-(((1-(3-chlorophenyl)-1H-pyrazol-4-yl)amino)methyl)-N-((1-methylpiperidin-4-yl)methyl)pyridin-2-amine] | > 100 |
| CN1CCC(CNc2ccc(CNc3cccn4ccnc34)cn2)CC1 [Example 1190, N-((6-(((1-methylpiperidin-4-yl)methyl)amino)pyridin-3-yl)methyl)imidazo[1,2-a]pyridin-8-amine] | > 100 |
| CN1CCC(CNc2ccc(CNc3ccc4cncc(N5CCC(F)(F)C5)c4c3)cn2)CC1 [Example 1260, 4-(3,3-difluoropyrrolidin-1-yl)-N-((6-(((1-methylpiperidin-4-yl)methyl)amino)pyridin-3-yl)methyl)isoquinolin-6-amine] | > 40 |
| Nc1ncc(Cl)c2cc(NCc3ccnc(OCC4CCn5c(C(=O)O)cnc5C4)c3)ccc12 (stereo not drawn) [Example 4453, 7-(((4-(((1-amino-4-chloroisoquinolin-6-yl)amino)methyl)pyridin-2-yl)oxy)methyl)-5,6,7,8-tetrahydroimidazo[1,2-a]pyridine-3-carboxylic acid] | > 40 |
| CN1CCC(CNc2ccc(CNc3ccc(N(C)C)nn3)cn2)CC1 [Example 1186, N3,N3-dimethyl-N6-((6-(((1-methylpiperidin-4-yl)methyl)amino)pyridin-3-yl)methyl)pyridazine-3,6-diamine] | > 100 |
| COc1ccc2cc(NCc3ccc(NCC4CCN(C)CC4)nc3)ccc2c1 [Example 1180, 5-(((6-methoxynaphthalen-2-yl)amino)methyl)-N-((1-methylpiperidin-4-yl)methyl)pyridin-2-amine] | > 100 |
| COc1ccc2ncc(NCc3ccc(NCC4CCN(C)CC4)nc3)cc2c1 [Example 1177, 6-methoxy-N-((6-(((1-methylpiperidin-4-yl)methyl)amino)pyridin-3-yl)methyl)quinolin-3-amine] | > 100 |
| COc1cccc2sc(NCc3ccc(NCC4CCN(C)CC4)nc3)nc12 [Example 1200, 4-methoxy-N-((6-(((1-methylpiperidin-4-yl)methyl)amino)pyridin-3-yl)methyl)benzo[d]thiazol-2-amine] | > 100 |
| Cc1nnc(-c2ccc(NCc3ccnc(OCC4CCN(C)CC4)c3)cc2)o1 [Example 4457, 4-(5-methyl-1,3,4-oxadiazol-2-yl)-N-((2-((1-methylpiperidin-4-yl)methoxy)pyridin-4-yl)methyl)aniline] | > 100 |
| CNC(=O)c1cc(NCc2ccc(NCC3CCN(C)CC3)nc2)cc2c(Cl)c[nH]c12 [Example 1220, 3-chloro-N-methyl-5-(((6-(((1-methylpiperidin-4-yl)methyl)amino)pyridin-3-yl)methyl)amino)-1H-indole-7-carboxamide] | > 40 |
| CN1CCC(CNc2ccc(CNc3ncnc4[nH]ccc34)cn2)CC1 [Example 1227, N-((6-(((1-methylpiperidin-4-yl)methyl)amino)pyridin-3-yl)methyl)-7H-pyrrolo[2,3-d]pyrimidin-4-amine] | > 100 |
| CNC(=O)c1cc(NCc2ccc(NCC3CCN(C)CC3)nc2)cc2ccncc12 [Example 1210, N-methyl-6-(((6-(((1-methylpiperidin-4-yl)methyl)amino)pyridin-3-yl)methyl)amino)isoquinoline-8-carboxamide] | > 100 |
| CN1CCC(CNc2ccc(CNc3cnc4cccnn34)cn2)CC1 [Example 1187, N-((6-(((1-methylpiperidin-4-yl)methyl)amino)pyridin-3-yl)methyl)imidazo[1,2-b]pyridazin-3-amine] | > 100 |
| COc1cccc2ccc(NCc3ccc(NCC4CCN(C)CC4)nc3)cc12 [Example 1178, 5-(((8-methoxynaphthalen-2-yl)amino)methyl)-N-((1-methylpiperidin-4-yl)methyl)pyridin-2-amine] | > 100 |
| Cc1cc(NCc2ccc(NCC3CCN(C)CC3)nc2)c2cc[nH]c2c1 [Example 1215, 6-methyl-N-((6-(((1-methylpiperidin-4-yl)methyl)amino)pyridin-3-yl)methyl)-1H-indol-4-amine] | > 100 |

Now from value to compound:

| IC50 [µM] | SMILES |
| --- | --- |
| > 100 | CN1CCC(CNc2ccc(CNc3cnc4[nH]cc(C#N)c4c3)cn2)CC1 [Example 1212, 5-(((6-(((1-methylpiperidin-4-yl)methyl)amino)pyridin-3-yl)methyl)amino)-1H-pyrrolo[2,3-b]pyridine-3-carbonitrile] |
| > 40 | CN1CCC(CNc2ccc(CNc3cc(C#N)nc4[nH]ccc34)cn2)CC1 [Example 1261, 4-(((6-(((1-methylpiperidin-4-yl)methyl)amino)pyridin-3-yl)methyl)amino)-1H-pyrrolo[2,3-b]pyridine-6-carbonitrile] |
| > 40 | CN1CCC(CNc2ccc(CNc3ccnc4[nH]c(C(=O)O)cc34)cn2)CC1 [Example 1253, 4-(((6-(((1-methylpiperidin-4-yl)methyl)amino)pyridin-3-yl)methyl)amino)-1H-pyrrolo [2,3-b]pyridine-2-carboxylic acid] |
| > 100 | CN1CCC(CNc2ccc(CNc3ccc4[nH]cnc4c3F)cn2)CC1 [Example 1191, 4-fluoro-N-((6-(((1-methylpiperidin-4-yl)methyl)amino)pyridin-3-yl)methyl)-1H-benzo[d]imidazol-5-amine] |
| > 100 | CN1CCC(CNc2ccc(CNc3ccnc4[nH]cc(C#N)c34)cn2)CC1 [Example 1221, 4-(((6-(((1-methylpiperidin-4-yl)methyl)amino)pyridin-3-yl)methyl)amino)-1H-pyrrolo[2,3-b]pyridine-3-carbonitrile] |
| > 100 | CN1CCC(CNc2ccc(CNc3ccnc4c3ccn4C)cn2)CC1 [Example 1225, 1-methyl-N-((6-(((1-methylpiperidin-4-yl)methyl)amino)pyridin-3-yl)methyl)-1H-pyrrolo[2,3-b]pyridin-4-amine] |
| > 100 | Cc1ncc(NCc2ccc(NCC3CCN(C)CC3)nc2)c2cc[nH]c12 [Example 1244, 7-methyl-N-((6-(((1-methylpiperidin-4-yl)methyl)amino)pyridin-3-yl)methyl)-1H-pyrrolo[2,3-c]pyridin-4-amine] |
| > 100 | CN1CCC(CNc2ccc(CNc3ccnc4[nH]ncc34)cn2)CC1 [Example 1218, N-((6-(((1-methylpiperidin-4-yl)methyl)amino)pyridin-3-yl)methyl)-1H-pyrazolo[3,4-b]pyridin-4-amine] |
| > 100 | CN1CCC(CNc2ccc(CNc3ccc(F)c4cnccc34)cn2)CC1 [Example 1214, 8-fluoro-N-((6-(((1-methylpiperidin-4-yl)methyl)amino)pyridin-3-yl)methyl)isoquinolin-5-amine] |
| > 40 | CN1CCC(CNc2ccc(CNc3cc(C(N)=O)nc4[nH]ccc34)cn2)CC1 [Example 1264, 4-(((6-(((1-methylpiperidin-4-yl)methyl)amino)pyridin-3-yl)methyl)amino)-1H-pyrrolo[2,3-b]pyridine-6-carboxamide] |
| > 100 | Cc1cc2c(NCc3ccc(NCC4CCN(C)CC4)nc3)ccnc2n1C [Example 1216, 1,2-dimethyl-N-((6-(((1-methylpiperidin-4-yl)methyl)amino)pyridin-3-yl)methyl)-1H-pyrrolo[2,3-b]pyridin-4-amine] |

target: Human Factor XIIa (Homo sapiens (Human), UniProt P00748); experiment: Determination of FXIIa inhibition (fluorogenic substrate H-DPro-Phe-Arg-AFC, IC50 assay); assay type: biochemical; conditions: substrate H-DPro-Phe-Arg-AFC at Km, 25° C.; class scale A-G
How it was run: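 Human FXIIa incubated at 25° C with fluorogenic substrate H-DPro-Phe-Arg-AFC at its Km concentration and varying compound concentrations. Fluorescence release monitored over 5 min at 25° C; linear rate expressed as % of uninhibited activity to derive IC50.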

Sequence of Human Factor XIIa (P00748 373-615): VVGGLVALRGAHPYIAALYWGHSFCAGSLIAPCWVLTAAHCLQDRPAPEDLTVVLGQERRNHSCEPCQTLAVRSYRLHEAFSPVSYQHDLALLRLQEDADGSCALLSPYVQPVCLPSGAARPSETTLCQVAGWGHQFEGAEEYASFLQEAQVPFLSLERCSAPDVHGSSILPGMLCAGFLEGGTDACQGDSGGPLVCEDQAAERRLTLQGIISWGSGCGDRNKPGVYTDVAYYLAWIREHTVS

| IC50 [µM] | SMILES |
| --- | --- |
| 1 to 3 | CN1CCC(OCc2ccc(CNc3ccc4c(N)nccc4c3)c(F)c2)CC12COC2 (stereo not drawn) [Example 2205, 6-N-({2-fluoro-4-[({5-methyl-2-oxa-5-azaspiro[3.5]nonan-8-yl}oxy)methyl]phenyl}methyl)isoquinoline-1,6-diamine] |
| 10 to 40 | Cc1cc(N2CCn3c(nnc3C(F)(F)F)C2C)ncc1CNc1ccnc2[nH]c(Cl)cc12 (single isomer, unassigned) [Example 1315, (R*)-2-Chloro-N-((4-methyl-6-(8-methyl-3-(trifluoromethyl)-5,6-dihydro-[1,2,4]triazolo[4,3-a]pyrazin-7(8H)-yl)pyridin-3-yl)methyl)-1H-pyrrolo[2,3-b]pyridin-4-amine] |
| 0.3 to 1 | CN1CCC(OCc2ccc(CN(C)c3ccc4cnccc4c3)cc2)CC1 [Example 2204, N-methyl-N-[(4-{[(1-methylpiperidin-4-yl)oxy]methyl}phenyl)methyl]isoquinolin-6-amine] |
| 0.01 to 0.1 | Cc1cc(N2CCn3c(nnc3C(F)(F)F)C2C)cnc1CNc1cccc2c(N)nccc12 (stereo not drawn) [Example 9007, N5-((3-methyl-5-(8-methyl-3-(trifluoromethyl)-5,6-dihydro-[1,2,4]triazolo[4,3-a]pyrazin-7(8H)-yl)pyridin-2-yl)methyl)isoquinoline-1,5-diamine] |
| 0.01 to 0.1 | Cc1cc(N2Cc3nnc(C(F)(F)F)n3C[C@H]2C)ncc1CNc1cccc2c(N)nccc12 [Example 1342, (R)-N5-((4-methyl-6-(6-methyl-3-(trifluoromethyl)-5,6-dihydro-[1,2,4]triazolo[4,3-a]pyrazin-7(8H)-yl)pyridin-3-yl)methyl)isoquinoline-1,5-diamine] |

Reference: US20240059691A1 (KALVISTA PHARMACEUTICALS LIMITED, priority 2020, published 2024)
